Data on four compounds can be found in US9586963B2 (GENFIT, priority 2011, dated 2017).

Series [1] relates to db/db mice. Description: Oral glucose tolerance test in db/db mice. It is filed as in vivo. Conditions: 50 mpk. How it is done:
Oral glucose tolerance test (OGTT) was performed as followed, at day 35 of treatment, after a 16-hour fasting period, an oral glucose load was administered at T=0 (2 g/kg of glucose, 10 mL/kg) and glycemia was measured at the tail vein at T=15, 30, 60, 90, 120 & 180 minutes.
Oral glucose tolerance test is a widely used assay perform to assess the body's tolerance to an orally glucose bolus, it is considered as a good marker of insulin resistance and diabetes. […] Improvement of the body's insulin sensitivity is illustrated on FIG. 3(b).

Series [2] concerns the target T1, Rev-Erb alpha (Homo sapiens, UniProt P20393).
T1 sequence (P20393 284-614 limits assumed): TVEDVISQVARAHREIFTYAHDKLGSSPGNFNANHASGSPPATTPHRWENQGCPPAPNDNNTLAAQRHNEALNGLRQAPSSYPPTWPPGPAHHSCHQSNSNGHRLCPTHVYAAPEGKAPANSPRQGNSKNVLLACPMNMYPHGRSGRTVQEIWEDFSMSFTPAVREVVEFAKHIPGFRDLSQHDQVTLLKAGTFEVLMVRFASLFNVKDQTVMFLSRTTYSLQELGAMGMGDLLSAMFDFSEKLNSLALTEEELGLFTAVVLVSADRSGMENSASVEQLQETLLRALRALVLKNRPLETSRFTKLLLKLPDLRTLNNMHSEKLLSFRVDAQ
In words: M2H (mammalian two-hybrid) cellular activation assay of Rev-Erb alpha. It is filed as cell-based. Conditions: M2H assay, HEK293 cells, Gal4-Rev-Erb alpha / VP16-NCoR, luciferase reporter. In outline:
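Six-point dose-response, 18 h, 37 °C, serum-free, in HEK293 cells carrying a Gal4-RE luciferase reporter with Gal4-Rev-Erb alpha or beta plus VP16-NCoR (corepressor interaction readout). EC50 and TOP activation (%) derived from luminescence across four experiments.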
In general terms: A reporter such as luciferase makes a cellular process visible.

Series [3] relates to Bmal1. In words: Gene expression of Rev-Erb alpha target gene Bmal1 in tissues of treated db/db mice. In kind it is in vivo. Conditions: 25 and 100 mpk, adipose tissue, muscle, liver. The source says: At the end of the treatment period, animals were anesthetized with isoflurane and then sacrificed by cervical dislocation. Liver, quadriceps muscle and epididymal adipose tissues were collected. The Student's t-test was used to test for statistical differences between drug and vehicle treatments when a single dose of drug was used while ANOVA followed by Dunnett's Multiple Comparison post hoc test was used for dose responses.
Gene expression studies have been performed on mRNA isolated from different metabolic tissues such as liver, adipose tissue and skeletal muscle. […] is considered as a target gene of Rev-Erba. Activation of Rev-Erba activity should then translate in a reduction of […] gene expression.

Series [4] concerns db/db mice. Description: In vivo evaluation in db/db mice: glycemia, HbA1c, plasma triglycerides. The conditions noted are these: once daily by gavage, 28 days. How it is done: 7-weeks-old male db/db mice were purchased from Charles River (France). Mice were 9-weeks-old at the beginning of the study. All mice were housed 2 per cage under controlled conditions of humidity, lighting and temperature. They had free access to food (R03, SAFE) and water.
Mice were randomized according to their body weight, and the non-fasting glycaemia, and assigned to 3 different groups: • Group 1: Control_Vehicle n=8 • Group 2: Cpd-4-39 25 mg/kg n=8 • Group 3: Cpd-4-39 100 mg/kg n=8 Treatments and Sample Analysis
The treatments were administered once daily, by gavage (10 mL/kg) for 28 consecutive days (unless otherwise mentioned). For oral administrations, compound was suspended in CMC 1%+Tween 80 0.1%.
Non fasting blood glucose level was determined from tail vein blood using a glucometer (Smart Chek, Kitvia), Blood samples were withdrawn under anesthesia by retro-orbital puncture at the end of the treatment period. Tubes containing blood were rapidly centrifuged after collection (15 minutes at 4,000 rpm/4° C.) and the plasma fraction was collected. Plasma aliquots were stored at −20° C. for further analyses.
The blood concentration of glycosylated hemoglobin A1c was determined using the Randox kit for Daytona automate (Randox, cat# HA 3830) according to the manufacturer's recommendations. Total hemoglobin and HbA1c concentrations were measured and the HbA1c result was expressed as a percentage of the total hemoglobin concentration.
The triglyceride content of plasma was measured using the Randox kit for Daytona automate (Randox, cat# TR 3823) according to the manufacturer's recommendations. In this protocol, the triglycerides are hydrolyzed by a lipase. The resulting glycerol concentration is then measured by an enzymatic method and spectrophotometric measurement. Results are expressed in mg/dL. • Oral Glucose Tolerance Test
At the end of the treatment period, animals were anesthetized with isoflurane and then sacrificed by cervical dislocation. Liver, quadriceps muscle and epididymal adipose tissues were collected. […]

Series [5] relates to Diet Induced Obesity mice. Description: In vivo evaluation in Diet Induced Obesity mice (high fat diet): glycemia, Hb1Ac. The conditions noted are these: diet induce obese mice, 45 mpk, once daily by gavage, 28 days. Also on record: species or system C57BI/6J mice. How it is done: Four week-old male C57BI/6J mice (from Janvier, France) were fed with an high fat diet (D12492, SSNIFF) for up to 10 weeks. All mice were housed 2 per cage under controlled conditions of humidity, lighting and temperature. At the end of the 10 week of diets, mice were randomized according to their body weight gain, body weight, and their non-fasting glycaemia. The treatments with compound of interest were administered once daily, by gavage (10 mL/kg) for 28 consecutive days. For oral administrations, the drugs were suspended in CMC 1%+Tween 80 0.1%.
As previously described animals were assayed for their non fasting glycaemia and biochemical parameters such as Hb1Ac.
At the end of the treatment period, animals were anesthetized with isoflurane and then sacrificed by cervical dislocation. The Student's t-test was used to test for statistical differences between drug and vehicle treatments when a single dose of drug was used.

For series [6], the system named is 3T3-L1 cells. The conditions noted are these: lipid accumulation and adipogenic genes; cited from earlier work.
The subject of series [7] is Bmal1. The conditions noted are these: cell culture, dose-dependent; cited from earlier work.
In series [8] the target is T2, Rev-Erb alpha (Homo sapiens, UniProt P20393).
T2 sequence (P20393 1-614): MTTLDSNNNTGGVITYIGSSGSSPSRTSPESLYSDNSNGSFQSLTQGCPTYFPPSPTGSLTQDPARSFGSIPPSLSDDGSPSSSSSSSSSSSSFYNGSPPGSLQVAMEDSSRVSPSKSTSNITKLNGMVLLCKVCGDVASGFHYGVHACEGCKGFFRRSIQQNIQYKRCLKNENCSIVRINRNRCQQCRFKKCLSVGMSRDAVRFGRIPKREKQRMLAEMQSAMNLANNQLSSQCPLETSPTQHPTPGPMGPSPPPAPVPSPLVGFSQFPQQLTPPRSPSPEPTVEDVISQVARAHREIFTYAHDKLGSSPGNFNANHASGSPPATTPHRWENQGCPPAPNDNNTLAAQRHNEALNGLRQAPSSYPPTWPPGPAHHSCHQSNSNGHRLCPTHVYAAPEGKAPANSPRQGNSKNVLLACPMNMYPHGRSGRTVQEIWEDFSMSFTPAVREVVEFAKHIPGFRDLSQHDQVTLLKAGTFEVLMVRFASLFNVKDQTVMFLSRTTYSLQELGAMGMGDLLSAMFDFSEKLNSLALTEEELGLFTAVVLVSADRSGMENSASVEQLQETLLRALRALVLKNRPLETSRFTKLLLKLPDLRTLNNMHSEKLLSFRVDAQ
The conditions noted are these: FRET assay; Meng Q J et al., 2008; cited from earlier work.

For series [9] the following is noted: high clearance and rapid metabolism; cited from earlier work.
Series [10] has as its target T2, Rev-Erb alpha. The conditions noted are these: Moore J T et al., 2006; cited from earlier work.

For the compound `FC(F)(F)c1ccc(-c2cccnc2)c(Oc2ccc3nnc(Cl)n3n2)c1`, in series [1] (OGTT), the “area under the curve, glucose tolerance” value was “Cpd-4-39 dependent effect on glucose tolerance”. Also, in series [1] (day 35, 16-hour fasting, 2 g/kg glucose), the “evolution of blood glucose in oral glucose tolerance test” value is given as “improved evolution of their blood glucose”. In series [2], this compound showed an EC50 of 100 to 1000 nM. Further, in series [3], the “Small expression in the studied organs (Bmal1 gene expression, FIGS. 13)” value was “significant inhibition”. Also, in series [4] (25 and 100 mpk), the Circulating triglycerides result is reported as “reduced” and the HbA1c entry was “significantly reduced”. In addition, the glycemia entry in series [4] (100 mpk, compared to control mice) is reported as “significantly reduced”.
For `FC(F)(F)c1ccc(-c2cncnc2)c(Oc2ccc3nnc(Cl)n3n2)c1` [Cpd.4-99, 3-chloro-6-(2-(pyrimidin-5-yl)-5-(trifluoromethyl)phenoxy)-[1,2,4]triazolo[4,3-b]pyridazine], in series [5], the Hb1Ac levels result is reported as “significantly reduced” and the “non fasting blood glucose concentration” value is reported as “significantly reduce”. For the same compound, the EC50 in [2] is 1000 to 6000 nM.
With `CC(C)(C)OC(=O)CN(Cc1ccc(Cl)cc1)Cc1ccc([N+](=O)[O-])s1` [GSK4112], the adipogenesis entry in series [6] is “induces adipogenesis”. Also, the Bmal1 expression result in series [7] is on record as “decreases Bmal1 expression”. Besides, in series [8], the “interaction of NCoR-derived peptide with Rev-Erb alpha” value is “dose-dependently increasing the interaction”. Besides, the pharmacokinetic properties entry in [9] was “poor pharmacokinetic properties”.
For `C=CC1=C(C)c2cc3[n-]c(cc4[n-]c(cc5nc(cc1n2)C(C)=C5C=C)c(C)c4CCC(=O)O)c(CCC(=O)O)c3C.[Fe+2]` [Heme], the Kd in series [10] is 2000 to 3000 nM.

The term EC50 denotes the midpoint of the concentration-response curve. As a reminder, the Kd is the free concentration of one partner at which half of the binding sites on the other are occupied at equilibrium, for simple one-to-one binding.
